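Growth conditions: 96-well plates. Treatment: test compound, 48 hours, 5 concentrations. Analysis: linear interpolation between bracketing concentrations; unreached endpoints set to highest concentration. Abbreviation: GI50, concentration required for 50% inhibition of growth.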 Calls of active or inactive are those of the source. Rule as the data show it: active = GI50 up to about 1.1 µM and inactive = higher.
What was measured:
Assay in all cases: growth of human tumour cells (NCI), 48 h
CAKI-1 = system: CAKI-1
SK-MEL-5 = system: SK-MEL-5
SW-620 = system: SW-620
BT-549 = system: BT-549
Hs-578T = system: Hs-578T
NCI-H226 = system: NCI-H226
SR = system: SR
RPMI-8226 = system: RPMI-8226
HCT-116 = system: HCT-116
DU-145 = system: DU-145
HT-29 = system: HT-29
NCI/ADR-RES = system: NCI/ADR-RES
MCF7 = system: MCF7
EKVX = system: EKVX
HL-60 = system: HL-60

Row | Structure (SMILES) | GI50 (CAKI-1) | GI50 (SK-MEL-5) | GI50 (SW-620) | GI50 (BT-549) | GI50 (Hs-578T) | GI50 (NCI-H226) | GI50 (SR) | GI50 (RPMI-8226) | GI50 (HCT-116) | GI50 (DU-145) | GI50 (HT-29) | GI50 (NCI/ADR-RES) | GI50 (MCF7) | GI50 (EKVX) | GI50 (HL-60)
1 | O=C(c1ccco1)C1CC(c2ccc3ccccc3c2O)=NN1 (stereo not drawn) | > 100 µM (inactive) | 89.5 µM (inactive) | 84.1 µM (inactive) | > 100 µM (inactive) | > 100 µM (inactive) | > 100 µM (inactive) | 20.2 µM (inactive) | 42.9 µM (inactive) | 57.4 µM (inactive) | > 100 µM (inactive) | 86.5 µM (inactive) | 91.4 µM (inactive) | 46.5 µM (inactive) |  | 
2 | CC[S+]1C2=C(CC(C)(C)CC2=O)[N-]c2ccccc21 (stereo not drawn) | > 100 µM (inactive) | > 100 µM (inactive) | > 100 µM (inactive) | > 100 µM (inactive) | 78.3 µM (inactive) | > 100 µM (inactive) | > 100 µM (inactive) | > 100 µM (inactive) | > 100 µM (inactive) | > 100 µM (inactive) | > 100 µM (inactive) | > 100 µM (inactive) | 24.4 µM (inactive) | > 100 µM (inactive) | > 100 µM (inactive)
3 | CCCCCC[C@H]1C(=O)O[C@H](C)[C@H](NC(=O)c2cccc(NC=O)c2OC)C(=O)O[C@@H](C)[C@@H]1OC(=O)C(C)CC.CCCCCC[C@H]1C(=O)O[C@H](C)[C@H](NC(=O)c2cccc(NC=O)c2OC)C(=O)O[C@@H](C)[C@@H]1OC(=O)CC(C)C (stereo partly drawn) | 12.9 µM (inactive) | 5.15 µM (inactive) | 14.5 µM (inactive) | 27 µM (inactive) | 12.1 µM (inactive) | 17.6 µM (inactive) | 5.82 µM (inactive) | 8.57 µM (inactive) | 10.1 µM (inactive) | 15.7 µM (inactive) | 8.59 µM (inactive) | 7.59 µM (inactive) | 4.88 µM (inactive) | 7.62 µM (inactive) | 4.53 µM (inactive)
4 | Clc1ccc(-c2nn3c(-c4ccncc4)nnc3s2)cc1 | > 100 µM (inactive) | > 100 µM (inactive) | > 100 µM (inactive) | > 100 µM (inactive) | > 100 µM (inactive) | > 100 µM (inactive) | > 100 µM (inactive) | > 100 µM (inactive) | > 100 µM (inactive) | 42.9 µM (inactive) | > 100 µM (inactive) | > 100 µM (inactive) | > 100 µM (inactive) | > 100 µM (inactive) | > 100 µM (inactive)
5 | NS(=O)(=O)c1cc(C(=O)O)c(Cl)c([N+](=O)[O-])c1Cl | > 100 µM (inactive) | > 100 µM (inactive) | > 100 µM (inactive) | > 100 µM (inactive) | > 100 µM (inactive) | > 100 µM (inactive) | > 100 µM (inactive) | > 100 µM (inactive) | > 100 µM (inactive) | > 100 µM (inactive) | > 100 µM (inactive) | > 100 µM (inactive) | > 100 µM (inactive) | > 100 µM (inactive) | > 100 µM (inactive)
6 | COc1ccc(C2NC(N)=C(C#N)C3=C2C(C)CCC3)cc1OC (stereo not drawn) | > 100 µM (inactive) | 24.2 µM (inactive) | > 100 µM (inactive) | 68.2 µM (inactive) | 74.3 µM (inactive) | > 100 µM (inactive) | 0.261 µM (active) | 10.2 µM (inactive) | > 100 µM (inactive) | > 100 µM (inactive) | 40 µM (inactive) | 35.2 µM (inactive) | 43.2 µM (inactive) | 33.4 µM (inactive) | 14.5 µM (inactive)
7 | COc1ccc(OC)c2sc(N3C(=O)/C(=C/c4cccc([N+](=O)[O-])c4)N=C3c3ccccc3)nc12 | > 100 µM (inactive) | 49.4 µM (inactive) | 23.7 µM (inactive) | 48.5 µM (inactive) | 51.9 µM (inactive) |  | 23.7 µM (inactive) | 22.5 µM (inactive) | > 100 µM (inactive) | 68.4 µM (inactive) | > 100 µM (inactive) | 56 µM (inactive) | 21.2 µM (inactive) | > 100 µM (inactive) | 20.8 µM (inactive)
8 | Cn1c(O)c(C2=Nc3ccccc3C2=O)c2ccccc21 | > 100 µM (inactive) | > 100 µM (inactive) | > 100 µM (inactive) | > 100 µM (inactive) | > 100 µM (inactive) | > 100 µM (inactive) | > 100 µM (inactive) | > 100 µM (inactive) | > 100 µM (inactive) | > 100 µM (inactive) | > 100 µM (inactive) | > 100 µM (inactive) | > 100 µM (inactive) | > 100 µM (inactive) | 
9 | CC(=O)C1(C(=O)C(=[N+]=[N-])S(=O)(=O)c2ccccc2)CC1 |  | > 100 µM (inactive) | > 100 µM (inactive) | > 100 µM (inactive) | > 100 µM (inactive) | > 100 µM (inactive) | > 100 µM (inactive) | 83.2 µM (inactive) | > 100 µM (inactive) | > 100 µM (inactive) | > 100 µM (inactive) | > 100 µM (inactive) | > 100 µM (inactive) | > 100 µM (inactive) | 74.1 µM (inactive)
10 | OC1(c2ccc(Cl)cc2)c2c(ccc3c2OCO3)C2=NCCN21 (stereo not drawn) | 46.9 µM (inactive) | 17.2 µM (inactive) | 97.9 µM (inactive) | 32.3 µM (inactive) | 20.8 µM (inactive) |  | 21.5 µM (inactive) | 19.2 µM (inactive) | 36.8 µM (inactive) | 97.7 µM (inactive) | 29.6 µM (inactive) | > 100 µM (inactive) | 33.7 µM (inactive) | 75 µM (inactive) | 38.8 µM (inactive)
11 | CSc1nc(-c2ccc(C)cc2)c(C#N)c(=O)[nH]1 | > 100 µM (inactive) | > 100 µM (inactive) | > 100 µM (inactive) | > 100 µM (inactive) | > 100 µM (inactive) | > 100 µM (inactive) |  | > 100 µM (inactive) | > 100 µM (inactive) | > 100 µM (inactive) | > 100 µM (inactive) | > 100 µM (inactive) | > 100 µM (inactive) | > 100 µM (inactive) | > 100 µM (inactive)
12 | CN(C)C(=O)OC1=CC2CCC(C1)N2C (stereo not drawn) | > 100 µM (inactive) | > 100 µM (inactive) | > 100 µM (inactive) | > 100 µM (inactive) | > 100 µM (inactive) | 0.685 µM (active) | 47 µM (inactive) | > 100 µM (inactive) | > 100 µM (inactive) | > 100 µM (inactive) | > 100 µM (inactive) | 91.6 µM (inactive) | 66.1 µM (inactive) | > 100 µM (inactive) | 
13 | O=C(N/C(=C\c1ccccc1)C1Nc2ccccc2C(=O)O1)c1ccccc1 (stereo not drawn) | > 100 µM (inactive) | 19.6 µM (inactive) | 23.6 µM (inactive) | 21.5 µM (inactive) | 30.3 µM (inactive) | 25.6 µM (inactive) |  | 23.3 µM (inactive) | 18.3 µM (inactive) | 54.1 µM (inactive) | 32.7 µM (inactive) | 25.9 µM (inactive) | 45.8 µM (inactive) | > 100 µM (inactive) | 12.4 µM (inactive)
14 | CC(C)C(=O)OCC1OC(n2c(Br)nc3c(=O)[nH]c(N)nc32)C(OC(=O)C(C)C)C1OC(=O)C(C)C (stereo not drawn) |  | > 10 µM (inactive) | 29.2 µM (inactive) | 35.5 µM (inactive) | 29 µM (inactive) | > 100 µM (inactive) | 38 µM (inactive) |  | 30.1 µM (inactive) | > 100 µM (inactive) | 17.8 µM (inactive) | > 100 µM (inactive) | 37.6 µM (inactive) | > 100 µM (inactive) | 
